Source: ChEMBL document CHEMBL3244037, “6-Aryl-4H-s-triazolo[4,3-a][1,4]benzodiazepines. Influence of 1-substitution on pharmacological activity” (J Med Chem, 1979)

Tests used:
[1] = system: Mus musculus; assay: Anticonvulsant activity in ip dosed albino CF1 mouse assessed as protection against pentylenetetrazole-induced clonic convulsions; assay type: functional
[2] = system: Mus musculus; assay: […] activity in ip dosed albino CF1 mouse assessed as potentiation of gamma-butyrolactone-induced sleep; assay type: functional
[3] = system: Mus musculus; assay: Inhibition of apomorphine-induced cage climbing in ip dosed albino CF1 mouse compound administered prior to challenge measured for 5 mins after 5 mins of challenge; assay type: functional
[4] = system: Mus musculus; assay: Inhibition of oxotremorine-induced hypothermia in ip dosed albino CF1 mouse; assay type: functional
[5] = system: Mus musculus; assay: Potentiation of yohimbine toxicity in ip dosed aggregated albino CF1 mouse; assay type: organism-based
[6] = system: Mus musculus; assay: Anticonvulsant activity in ip dosed albino CF1 mouse assessed as inhibition of bicucullin-induced tonic extensor convulsions; assay type: functional
[7] = system: Mus musculus; assay: Hypothermic activity in ip dosed albino CF1 mouse assessed as effect on body temperature measured after 45 mins; assay type: functional; conditions: 0.75 h
[8] = system: Mus musculus; assay: Potentiation of apomorphine-induced gnawing in ip dosed albino CF1 mouse; assay type: organism-based
[9] = system: Mus musculus; assay: Inhibition of amphetamine aggregation toxicity in ip dosed albino CF1 mouse compound administered 1 hr prior to challenge measured after 2 hrs; assay type: functional
[10] = system: Mus musculus; assay: Reduction of hypoxic stress in ip dosed albino CF1 mouse assessed as prolongation of hypoxic survival time; assay type: functional

Row | Compound | ED50 [1] | ED50 [2] | ED50 [3] | ED50 [4] | ED50 [5] | ED50 [6] | ED50 [7] | ED50 [8] | ED50 [9] | ED50 [10]
1 | OCc1nnc2n1-c1ccc(Cl)cc1C(c1ccccc1)=NC2 | 0.1 mg/kg | 0.1 mg/kg | > 50 mg/kg | 20 mg/kg | > 50 mg/kg | 0.2 mg/kg | > 50 mg/kg | > 50 mg/kg | > 50 mg/kg | 0.9 mg/kg
2 | Cc1nnc2n1-c1ccc(N)cc1C(c1ccccc1Cl)=NC2 | 2 mg/kg | 0.7 mg/kg | > 50 mg/kg | > 50 mg/kg | > 50 mg/kg | 0.9 mg/kg | 30 mg/kg | > 50 mg/kg | > 50 mg/kg | 4 mg/kg
3 | Clc1ccc2c(c1)C(c1ccccc1)=NCc1nnc(N3CCN(c4ccccc4)CC3)n1-2 | > 50 mg/kg | > 50 mg/kg | > 50 mg/kg | > 50 mg/kg | > 50 mg/kg | > 50 mg/kg | > 50 mg/kg | > 50 mg/kg | > 50 mg/kg | > 50 mg/kg
4 | CCN1CCN(c2nnc3n2-c2ccc(Cl)cc2C(c2ccccc2)=NC3)CC1 | 0.9 mg/kg | 0.6 mg/kg | > 50 mg/kg | 0.2 mg/kg | > 50 mg/kg | 1.9 mg/kg | 42 mg/kg | 29.7 mg/kg | > 50 mg/kg | 25 mg/kg
5 | Clc1ccc2c(c1)C(c1ccccc1)=NCc1nnc(Cl)n1-2 | 3.1 mg/kg | 3 mg/kg | > 50 mg/kg | > 50 mg/kg | > 50 mg/kg | 4 mg/kg | > 50 mg/kg | > 50 mg/kg | > 50 mg/kg | > 50 mg/kg
6 | Clc1ccc2c(c1)C(c1ccccc1)=NCc1nnc(N3CCNCC3)n1-2 | > 50 mg/kg | > 50 mg/kg | > 50 mg/kg | 34 mg/kg | > 50 mg/kg | > 50 mg/kg | > 50 mg/kg | > 50 mg/kg | > 50 mg/kg | > 50 mg/kg
7 | Clc1ccccc1C1=NCc2nnc(N3CCOCC3)n2-c2ccccc21 | 1.6 mg/kg | 0.8 mg/kg | > 50 mg/kg | > 50 mg/kg | > 50 mg/kg | 10.5 mg/kg | > 50 mg/kg | > 50 mg/kg | > 50 mg/kg | 0.015 mg/kg
8 | CC1N=C(c2ccccc2)c2cc(Cl)ccc2-n2c1nnc2N1CCOCC1 (stereo not given) | 0.4 mg/kg | 0.7 mg/kg | > 50 mg/kg | 10 mg/kg | 20 mg/kg | 3 mg/kg | > 50 mg/kg | > 50 mg/kg | > 50 mg/kg | 3 mg/kg
9 | CCN1CCN(c2nnc3n2-c2ccccc2C(c2ccccc2Cl)=NC3)CC1 | 2 mg/kg | > 50 mg/kg | > 50 mg/kg | 40 mg/kg | 30 mg/kg | 7 mg/kg | 2 mg/kg | > 50 mg/kg | > 50 mg/kg | 4 mg/kg
10 | OCCc1nnc2n1-c1ccc(Cl)cc1C(c1ccccc1)=NC2 | 4 mg/kg | > 50 mg/kg | > 50 mg/kg | > 50 mg/kg | > 50 mg/kg | > 50 mg/kg | 30 mg/kg | > 50 mg/kg | > 50 mg/kg | 4 mg/kg
11 | Clc1ccc2c(c1)C(c1ccccc1)=NCc1nnc(Br)n1-2 | 2.3 mg/kg | 2 mg/kg | > 50 mg/kg | > 50 mg/kg | > 50 mg/kg | 3 mg/kg | > 50 mg/kg | > 50 mg/kg | > 50 mg/kg | 6 mg/kg
